Data from patent publication US20050245571A1, “Amine derivative” (priority 2001, published 2005).

Tests used:
[1] = biological target: T1, human SSTR3 (Homo sapiens, UniProt P32745); test: Binding inhibition of 125I-somatostatin-14, SSTR3 membrane fraction; details: 125I-somatostatin-14 binding, CHO membrane fraction, 25° C. 60 minutes, Hill plots
T1 construct: expressed in transfected cells; host or cells: CHO (dhfr-) cells, strain SSTR3-15-19, plasmid pA1-11-SSTR3 (pAKKO-111 vector)

[2] = biological target: T2, human SSTR5 (Homo sapiens, UniProt P35346); test: Binding inhibition of 125I-somatostatin-14, SSTR5 membrane fraction; details: 125I-somatostatin-14 binding, CHO membrane fraction, 25° C. 60 minutes, Hill plots
T2 construct: expressed in transfected cells; host or cells: CHO (dhfr-) cells, strain SSTR5-32-4, plasmid pA1-11-SSTR5 (pAKKO-111 vector)

[3] = biological target: T3, human SSTR2 (Homo sapiens, UniProt P30874); test: Binding inhibition of 125I-somatostatin-14, SSTR2 membrane fraction; details: 125I-somatostatin-14 binding, CHO membrane fraction, 25° C. 60 minutes, Hill plots
T3 construct: expressed in transfected cells; host or cells: CHO (dhfr-) cells, strain SSTR2-HS5-9, plasmid pAC01 (pAKKO-111 vector)
Method: (4) Cloning of Human Somatostatin Receptor Protein Subtype 2 (SSTR2) DNA
pAKKO-111 mentioned under the above (2) was used as the expression vector in CHO (Chinese Hamster Ovary) cells. 5 μg of the plasmid having human SSTR2 cDNA fragment obtained under the above (4) was digested with the restriction enzyme Sal I and subjected to electrophoresis on 1% agarose gel to recover the 1.1 kb DNA fragment encoding human SSTR2. Next, 1 μg of the above-mentioned expression vector pAKKO-111 (5.5 kb) was digested with Sal I to prepare the cloning site for insertion of human SSTR2 DNA fragment. Said expression vector fragment and the 1.1 kb DNA fragment were ligated with T4 DNA ligase. The reaction mixture was introduced into E. coli JM109 by the calcium chloride method to obtain the expression plasmid pAC01 in which human SSTR2 DNA fragment was inserted in regular direction against the promoter from the transformants. This transformant is expressed as Escherichia coli JM109/pAC-01.
1×10^6 CHO (dhfr^−) cells were cultured for 24 hours in HAM F12 medium containing 10% bovine fetal serum on a laboratory dish of 8 cm in diameter. To the cells was transfected 10 μg of the human SSTR2 cDNA expression plasmid, pA-C01, obtained under the above (5) by the calcium phosphate method (Cell Phect Transfection Kit: Pharmacia). The medium was switched to DMEM medium containing 10% dialyzed bovine fetal serum 24 hours after the transfection to select the colony-forming cells (i.e. DHFR^+ cells) in this medium. Further, the selected cells were cloned from a single cell by the limiting dilution method and a cell strain which highly expresses human SSTR2, SSTR2-HS5-9, was selected.
The receptor binding inhibition rate (%) of the subject compound was calculated using each of the membrane fractions prepared in Experimental Examples 1 and 2.
The membrane fraction was diluted with a buffer solution for assay to adjust the concentration to 3 μg/ml. The diluate was placed in tubes each in quantity of 173 μl. To this were simultaneously added 2 μl of a solution of a subject compound in DMSO and 25 μl of a […] radioisotope-labeled somatostatin-14 (^125I-somatostatin-14: Amersham). For measurement of the maximum binding, a reaction mixture added with 2 μl of DMSO and 25 μl of a […] ^125I-somatostatin was prepared. For measurement of non-specific binding, a reaction mixture added with 2 μl of a 100 μM somatostatin solution in DMSO and 25 μl of a 200 pM ^125I-somatostatin solution was prepared at the same time. The mixtures were allowed to react at 25° C. for 60 minutes. Then, the reaction mixture was filtered by aspiration using a Whatman glass filter (GF-B) treated with polyethylenine. After filtration, the radioactivity of ^125I-somatostatin-14 remaining on the filter paper was measured by a γ-counter. The binding inhibition rate (%) of each subject compound was calculated by the following formula: (TB-SB)/(TB-NSB)×100 • SB: radioactivity when a compound was added • TB: maximum binding radioactivity • NSB: non-specific binding radioactivity
The binding inhibition rates were measured by changing the concentrations of the subject compound, and the 50% inhibiting concentration of the subject compound (IC50 value) was calculated by the Hill plots. The results are shown in [Table 1].

[4] = test system: glucagon secretion; test: Glucagon Secretion Inhibitory Activity Test (Rat); type: in vivo; details: SD rats male fasted, 3 mg/kg oral, insulin 2 U/kg s.c. 120 minutes later, plasma glucagon 30 minutes after insulin
Method: Glucagon Secretion Inhibitory Activity Test (Rat)
A 0.5% methylcellulose suspension containing the subject compound (3 mg/kg body weight) (compound administration group) or a 0.5% methylcellulose suspension (compound non-administration group) was orally administered to SD rats (male, 7 weeks of age) after fasting overnight, and 120 minutes later, insulin (2 U/kg body weight, Novo Nordisk) was subcutaneously administered. After 30 minutes from the insulin administration, the blood was,drawn from the vein of eyegrounds of the rats using capillary, and blood plasma was separated by centrifugation. The concentration of glucagon in the obtained blood plasma was measured by radioimmunoassay using a Daiichi glucagon kit (Daiichi Isotope). As a non-treated group, the concentration of glucagon in the blood plasma of rat of the compound non-administration group free of insulin administration was measured in the same manner as above. […]

T1 sequence (P32745 whole entry): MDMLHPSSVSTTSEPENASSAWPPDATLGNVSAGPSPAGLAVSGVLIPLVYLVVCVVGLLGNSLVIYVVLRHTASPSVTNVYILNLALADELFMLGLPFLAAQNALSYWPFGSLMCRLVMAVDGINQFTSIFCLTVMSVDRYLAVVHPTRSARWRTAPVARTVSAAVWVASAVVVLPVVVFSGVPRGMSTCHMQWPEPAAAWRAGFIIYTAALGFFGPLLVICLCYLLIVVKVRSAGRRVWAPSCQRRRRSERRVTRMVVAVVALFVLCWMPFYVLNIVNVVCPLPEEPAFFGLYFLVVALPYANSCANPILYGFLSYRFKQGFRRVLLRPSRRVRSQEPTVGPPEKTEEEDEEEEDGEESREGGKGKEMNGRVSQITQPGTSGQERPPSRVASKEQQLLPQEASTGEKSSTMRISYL
T2 sequence (P35346 whole entry): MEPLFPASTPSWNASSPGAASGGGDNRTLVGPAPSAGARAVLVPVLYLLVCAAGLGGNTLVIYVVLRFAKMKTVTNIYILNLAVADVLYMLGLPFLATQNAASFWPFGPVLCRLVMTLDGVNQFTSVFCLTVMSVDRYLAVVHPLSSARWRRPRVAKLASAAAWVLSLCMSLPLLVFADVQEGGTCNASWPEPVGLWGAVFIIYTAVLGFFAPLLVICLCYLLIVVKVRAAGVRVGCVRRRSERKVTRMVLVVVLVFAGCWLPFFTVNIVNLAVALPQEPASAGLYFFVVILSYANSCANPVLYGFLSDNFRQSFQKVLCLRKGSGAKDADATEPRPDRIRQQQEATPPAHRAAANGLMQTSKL
T3 sequence (P30874 whole entry): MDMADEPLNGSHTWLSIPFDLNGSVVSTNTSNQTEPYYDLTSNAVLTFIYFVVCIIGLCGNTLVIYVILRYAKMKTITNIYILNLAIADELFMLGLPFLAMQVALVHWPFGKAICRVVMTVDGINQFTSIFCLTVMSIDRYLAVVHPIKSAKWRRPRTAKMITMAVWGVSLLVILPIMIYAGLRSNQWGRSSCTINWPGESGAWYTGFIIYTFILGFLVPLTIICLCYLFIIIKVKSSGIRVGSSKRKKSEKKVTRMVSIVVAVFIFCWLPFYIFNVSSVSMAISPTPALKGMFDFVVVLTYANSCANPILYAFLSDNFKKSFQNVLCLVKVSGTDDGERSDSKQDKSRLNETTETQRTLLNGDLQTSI

SMILES: CC(c1c[nH]c2ccccc12)C(NC(=O)N1CCC(Oc2ccc(O)cc2)CC1)C(=O)N1C[C@@H](CN(C)C)Cc2cc(Cl)ccc21 (single isomer, unassigned; (-)) [Example 141]
- IC50 [1]: 3 nM
- IC50 [2]: 10 nM
- IC50 [3]: 0.05 nM

SMILES: C[C@@H](c1c[nH]c2ccccc12)[C@@H](NC(=O)C1CCN(C(=O)c2cc3ccccc3n2C)CC1)C(=O)N1C[C@@H](CN(C)C)Cc2cc(Cl)ccc21 [Example 6, N-[(1R,2S)-1-[((3R)-6-chloro-3-[(dimethylamino)methyl]-3,4-dihydro-1(2H)-quinolinyl)carbonyl]-2-(1H-indol-3-yl)propyl]-1-[(1-methyl-1H-indol-2-yl)carbonyl]-4-piperidinecarboxamide]
- IC50 [1]: 30 nM
- IC50 [2]: 60 nM
- IC50 [3]: 0.2 nM
- glucagon secretion (% of control) [4]: 15.6 % of control

SMILES: C[C@@H](c1c[nH]c2ccccc12)[C@@H](NC(=O)N1CCC(Oc2ccccc2)CC1)C(=O)N1C[C@@H](CN(C)C)Cc2cc(Cl)ccc21 [Example 42, N-[(1R,2S)-1-[((3R)-6-chloro-3-[(dimethylamino)methyl]-3,4-dihydro-1(2H)-quinolinyl)carbonyl]-2-(1H-indol-3-yl)propyl]-4-phenoxy-1-piperidinecarboxamide]
- IC50 [1]: 6 nM
- IC50 [2]: 40 nM
- IC50 [3]: 0.1 nM
- glucagon secretion (% of control) [4]: 3.0 % of control

SMILES: C[C@@H](c1c[nH]c2ccccc12)[C@@H](NC(=O)N1CCC(Oc2ccc(F)cc2)CC1)C(=O)N1C[C@@H](CN(C)C)Cc2cc(Cl)ccc21 [Example 153, N-[(1R,2S)-1-[[(3R)-6-chloro-3-[(dimethylamino)methyl]-3,4-dihydro-1(2H)-quinolinyl]carbonyl]-2-(1H-indol-3-yl)propyl]-4-(4-fluorophenoxy)-1-piperidinecarboxamide]
- IC50 [1]: 10 nM
- IC50 [2]: 40 nM
- IC50 [3]: 0.1 nM

SMILES: C[C@@H](c1c[nH]c2ccccc12)[C@@H](NC(=O)N1CCN(C(=O)c2ccccc2)CC1)C(=O)N1C[C@@H](CN(C)C)Cc2cc(Cl)ccc21 [Example 157, 4-benzoyl-N-[(1R,2S)-1-[[(3R)-6-chloro-3-[(dimethylamino)methyl]-3,4-dihydro-1(2H)-quinolinyl]carbonyl]-2-(1H-indol-3-yl)propyl]-1-piperazinecarboxamide]
- IC50 [1]: 1 nM
- IC50 [2]: 5 nM
- IC50 [3]: 0.05 nM
